In PubChem BioAssay (NCI):
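48-hour exposure; five concentrations; linearly interpolated endpoints. TGI: total growth inhibition.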

How the values were obtained:
Assay in all cases: NCI anticancer screen, dose series, 48 h
[1] = system: K-562 leukemia
[2] = system: COLO 205 colon
[3] = system: SK-MEL-5 melanoma
[4] = system: NCI-H460 lung
[5] = system: CAKI-1 renal
[6] = system: HOP-62 NSCLC
[7] = system: HCT-15 colon
[8] = system: A498 renal
[9] = system: UO-31 renal
[10] = system: LOX IMVI melanoma
[11] = system: IGROV1 ovarian
[12] = system: SF-295 CNS
[13] = system: SW-620 colon
[14] = system: SR leukemia
[15] = system: UACC-257 melanoma
[16] = system: MOLT-4 leukemia
[17] = system: SK-MEL-2 melanoma
[18] = system: UACC-62 melanoma
[19] = system: RPMI-8226 leukemia
[20] = system: OVCAR-4 ovarian
[21] = system: M14 melanoma
[22] = system: HCT-116 colon
[23] = system: HOP-92 NSCLC
[24] = system: NCI-H522 lung
[25] = system: NCI/ADR-RES ovarian
[26] = system: EKVX NSCLC
[27] = system: MCF7 breast
[28] = system: NCI-H226 lung
[29] = system: CCRF-CEM leukemia
[30] = system: DU-145 prostate
[31] = system: SF-539 CNS
[32] = system: MDA-MB-435
[33] = system: OVCAR-5 ovarian
[34] = system: ACHN renal
[35] = system: MDA-MB-231 breast
[36] = system: A549 NSCLC
[37] = system: SK-MEL-28 melanoma
[38] = system: MDA-N
[39] = system: TK-10 renal
[40] = system: OVCAR-3 ovarian
[41] = system: RXF 393 renal
[42] = system: NCI-H23 lung
[43] = system: HCC-2998 colon
[44] = system: T-47D breast
[45] = system: BT-549 breast
[46] = system: PC-3 prostate
[47] = system: SN12C renal
[48] = system: HL-60(TB) leukemia
[49] = system: 786-0 renal
[50] = system: KM12 colon
[51] = system: U251 CNS
[52] = system: SNB-19 CNS
[53] = system: MALME-3M melanoma
[54] = system: HT29 colon
[55] = system: SNB-75 CNS
[56] = system: SF-268 CNS
[57] = system: OVCAR-8 ovarian
[58] = system: SK-OV-3 ovarian

In the case of CCOC(=O)c1sc2nc(SC)nc(Nc3ccc4c(c3)OCO4)c2c1N, the TGI [1] is reported as greater than 100 µM, the TGI [2] is reported as greater than 100 µM and the TGI [3] is reported as greater than 100 µM. For the same compound, the TGI [4] was greater than 100 µM, the TGI [5] was greater than 100 µM and the TGI [6] was greater than 100 µM. The TGI [7] was greater than 100 µM, the TGI [8] was 96.9 µM and the TGI [9] was greater than 100 µM. The TGI [10] was greater than 100 µM, the TGI [11] was greater than 100 µM and the TGI [12] was 84.8 µM. The TGI [13] was greater than 100 µM, the TGI [14] was greater than 100 µM and the TGI [15] was greater than 100 µM. For the same compound, the TGI [16] was greater than 100 µM, the TGI [17] was greater than 100 µM and the TGI [18] was greater than 100 µM. The TGI [19] was greater than 100 µM, the TGI [20] was greater than 100 µM and the TGI [21] was greater than 100 µM. The TGI [22] was greater than 100 µM, the TGI [23] was 71.6 µM and the TGI [24] was greater than 100 µM. For the same compound, the TGI [25] was greater than 100 µM, the TGI [26] was 77.5 µM and the TGI [27] was greater than 100 µM. It also gave a TGI [28] greater than 100 µM, a TGI [29] greater than 100 µM and a TGI [30] greater than 100 µM. It also gave a TGI [31] greater than 100 µM, a TGI [32] greater than 100 µM and a TGI [33] greater than 100 µM. For the same compound, the TGI [34] was 69.4 µM, the TGI [35] was greater than 100 µM and the TGI [36] was greater than 100 µM. It also gave a TGI [37] of 63.1 µM, a TGI [38] greater than 100 µM and a TGI [39] greater than 100 µM. It also gave a TGI [40] greater than 100 µM, a TGI [41] of 31 µM and a TGI [42] greater than 100 µM. The TGI [43] was greater than 100 µM, the TGI [44] was greater than 100 µM and the TGI [45] was greater than 100 µM. It also gave a TGI [46] greater than 100 µM, a TGI [47] greater than 100 µM and a TGI [48] greater than 100 µM. For the same compound, the TGI [49] was greater than 100 µM, the TGI [50] was greater than 100 µM and the TGI [51] was greater than 100 µM. For the same compound, the TGI [52] was greater than 100 µM and the TGI [53] was 97.6 µM.
For CC(C)Sc1nncc(/C(N)=N/O)n1, the TGI [1] was greater than 100 µM, the TGI [54] was greater than 100 µM and the TGI [2] was greater than 100 µM. For the same compound, the TGI [3] was greater than 100 µM, the TGI [4] was greater than 100 µM and the TGI [5] was greater than 100 µM. It also gave a TGI [6] greater than 100 µM, a TGI [7] greater than 100 µM and a TGI [8] greater than 100 µM. It also gave a TGI [9] greater than 100 µM, a TGI [10] greater than 100 µM and a TGI [11] greater than 100 µM. The TGI [12] was greater than 100 µM, the TGI [13] was greater than 100 µM and the TGI [14] was greater than 100 µM. For the same compound, the TGI [15] was greater than 100 µM, the TGI [16] was greater than 100 µM and the TGI [18] was greater than 100 µM. It also gave a TGI [19] greater than 100 µM, a TGI [20] greater than 100 µM and a TGI [55] greater than 100 µM. It also gave a TGI [56] greater than 100 µM, a TGI [21] greater than 100 µM and a TGI [22] greater than 100 µM. It also gave a TGI [23] greater than 100 µM, a TGI [24] greater than 100 µM and a TGI [25] greater than 100 µM. The TGI [26] was greater than 100 µM, the TGI [27] was greater than 100 µM and the TGI [28] was greater than 100 µM. For the same compound, the TGI [29] was greater than 100 µM, the TGI [30] was greater than 100 µM and the TGI [31] was greater than 100 µM. The TGI [32] was greater than 100 µM, the TGI [33] was greater than 100 µM and the TGI [34] was greater than 100 µM. It also gave a TGI [35] greater than 100 µM, a TGI [36] greater than 100 µM and a TGI [37] greater than 100 µM. For the same compound, the TGI [38] was greater than 100 µM, the TGI [39] was greater than 100 µM and the TGI [40] was greater than 100 µM. The TGI [41] was greater than 100 µM, the TGI [42] was greater than 100 µM and the TGI [43] was greater than 100 µM. The TGI [57] was greater than 100 µM, the TGI [44] was greater than 100 µM and the TGI [45] was greater than 100 µM. The TGI [58] was greater than 100 µM, the TGI [46] was greater than 100 µM and the TGI [47] was greater than 100 µM. It also gave a TGI [49] greater than 100 µM, a TGI [50] greater than 100 µM and a TGI [51] greater than 100 µM. The TGI [52] was greater than 100 µM and the TGI [53] was greater than 100 µM.
For COc1ccc(/C=C2/SC(c3ccccc3)N(NC(=O)CCCCCCCCC(=O)NN3C(=O)/C(=C\c4ccc(OC)c(OC)c4)SC3c3ccccc3)C2=O)cc1OC (stereo unspecified), the TGI [1] was 62 µM, the TGI [54] was greater than 100 µM and the TGI [2] was greater than 100 µM. It also gave a TGI [4] greater than 100 µM, a TGI [5] greater than 100 µM and a TGI [6] greater than 100 µM. It also gave a TGI [7] greater than 100 µM, a TGI [8] greater than 100 µM and a TGI [9] greater than 100 µM. It also gave a TGI [11] of 61.7 µM, a TGI [12] of 72.9 µM and a TGI [13] greater than 100 µM. It also gave a TGI [14] of 98.3 µM, a TGI [15] greater than 100 µM and a TGI [16] of 60.5 µM. The TGI [17] was greater than 100 µM, the TGI [18] was 98.7 µM and the TGI [19] was 72.6 µM. It also gave a TGI [20] greater than 100 µM, a TGI [55] greater than 100 µM and a TGI [56] greater than 100 µM. The TGI [21] was greater than 100 µM, the TGI [22] was greater than 100 µM and the TGI [23] was 66.3 µM. The TGI [25] was greater than 100 µM, the TGI [26] was 94.8 µM and the TGI [27] was greater than 100 µM. For the same compound, the TGI [28] was greater than 100 µM, the TGI [30] was greater than 100 µM and the TGI [31] was 79.1 µM. It also gave a TGI [32] greater than 100 µM, a TGI [33] greater than 100 µM and a TGI [34] of 71.8 µM. It also gave a TGI [35] greater than 100 µM, a TGI [36] greater than 100 µM and a TGI [37] greater than 100 µM. It also gave a TGI [38] of 76.2 µM, a TGI [39] greater than 100 µM and a TGI [40] greater than 100 µM. For the same compound, the TGI [41] was greater than 100 µM, the TGI [42] was greater than 100 µM and the TGI [43] was greater than 100 µM. For the same compound, the TGI [57] was greater than 100 µM, the TGI [44] was greater than 100 µM and the TGI [45] was greater than 100 µM. It also gave a TGI [58] greater than 100 µM, a TGI [46] greater than 100 µM and a TGI [47] greater than 100 µM. For the same compound, the TGI [49] was 91.3 µM, the TGI [50] was greater than 100 µM and the TGI [51] was greater than 100 µM. The TGI [52] was greater than 100 µM.
